In ChEMBL document CHEMBL2346657, “Synthesis of novel 2-amino-4-(5'-substituted 2'-phenyl-1H-indol-3'-yl)-6-aryl-4H-pyran-3-carbonitrile derivatives as antimicrobial and antioxidant agents” (2013):
Calls of active or inactive are those of the source.

Legend:
Assay type in all cases: functional
[1] = Antioxidant activity assessed as metal chelating activity by measuring inhibition of ferrozine-Fe2+ complex formation at 25 to 100 ug/ml
[2] = Antioxidant activity assessed as ferric ion reducing activity at 100 ug/ml by FRAP assay
Aspergillus flavus [3] = assay: Antimicrobial activity against Aspergillus flavus MTCC 1973 at 500 ug/ml after 72 hrs by cup plate method; settings: MTCC 1973, 72 h, read-out: IZ
Aspergillus flavus [4] = assay: Antimicrobial activity against Aspergillus flavus MTCC 1973 at 750 ug/ml after 72 hrs by cup plate method; settings: MTCC 1973, 72 h, read-out: IZ
Aspergillus flavus [5] = assay: Antimicrobial activity against Aspergillus flavus MTCC 1973 at 1000 ug/ml after 72 hrs by cup plate method; settings: MTCC 1973, 72 h, read-out: IZ
Aspergillus terreus [6] = assay: Antimicrobial activity against Aspergillus terreus MTCC 1782 at 500 ug/ml after 72 hrs by cup plate method; settings: MTCC 1782, 72 h, read-out: IZ
Aspergillus terreus [7] = assay: Antimicrobial activity against Aspergillus terreus MTCC 1782 at 750 ug/ml after 72 hrs by cup plate method; settings: MTCC 1782, 72 h, read-out: IZ
Aspergillus terreus [8] = assay: Antimicrobial activity against Aspergillus terreus MTCC 1782 at 1000 ug/ml after 72 hrs by cup plate method; settings: MTCC 1782, 72 h, read-out: IZ
Aspergillus oryzae [9] = assay: Antimicrobial activity against Aspergillus oryzae MTCC 3567 at 500 ug/ml after 72 hrs by cup plate method; settings: MTCC 3567, 72 h, read-out: IZ
Aspergillus oryzae [10] = assay: Antimicrobial activity against Aspergillus oryzae MTCC 3567 at 750 ug/ml after 72 hrs by cup plate method; settings: MTCC 3567, 72 h, read-out: IZ
Aspergillus oryzae [11] = assay: Antimicrobial activity against Aspergillus oryzae MTCC 3567 at 1000 ug/ml after 72 hrs by cup plate method; settings: MTCC 3567, 72 h, read-out: IZ
Aspergillus niger [12] = assay: Antimicrobial activity against Aspergillus niger MTCC 281 at 500 ug/ml after 72 hrs by cup plate method; settings: MTCC 281, 72 h, read-out: IZ
Aspergillus niger [13] = assay: Antimicrobial activity against Aspergillus niger MTCC 281 at 750 ug/ml after 72 hrs by cup plate method; settings: MTCC 281, 72 h, read-out: IZ
Aspergillus niger [14] = assay: Antimicrobial activity against Aspergillus niger MTCC 281 at 1000 ug/ml after 72 hrs by cup plate method; settings: MTCC 281, 72 h, read-out: IZ
Pseudomonas aeruginosa [15] = assay: Antimicrobial activity against Pseudomonas aeruginosa MTCC 1688 at 500 ug/ml after 24 hrs by cup plate method; settings: MTCC 1688, 24 h, read-out: IZ
Pseudomonas aeruginosa [16] = assay: Antimicrobial activity against Pseudomonas aeruginosa MTCC 1688 at 750 ug/ml after 24 hrs by cup plate method; settings: MTCC 1688, 24 h, read-out: IZ
Pseudomonas aeruginosa [17] = assay: Antimicrobial activity against Pseudomonas aeruginosa MTCC 1688 at 1000 ug/ml after 24 hrs by cup plate method; settings: MTCC 1688, 24 h, read-out: IZ
Klebsiella pneumoniae [18] = assay: Antimicrobial activity against Klebsiella pneumoniae NCTC 13368 at 500 ug/ml after 24 hrs by cup plate method; settings: NCTC 13368, 24 h, read-out: IZ
Klebsiella pneumoniae [19] = assay: Antimicrobial activity against Klebsiella pneumoniae NCTC 13368 at 750 ug/ml after 24 hrs by cup plate method; settings: NCTC 13368, 24 h, read-out: IZ
Klebsiella pneumoniae [20] = assay: Antimicrobial activity against Klebsiella pneumoniae NCTC 13368 at 1000 ug/ml after 24 hrs by cup plate method; settings: NCTC 13368, 24 h, read-out: IZ
Staphylococcus aureus [21] = assay: Antimicrobial activity against Staphylococcus aureus ATCC 29513 at 500 ug/ml after 24 hrs by cup plate method; settings: ATCC 29513, 24 h, read-out: IZ
Staphylococcus aureus [22] = assay: Antimicrobial activity against Staphylococcus aureus ATCC 29513 at 750 ug/ml after 24 hrs by cup plate method; settings: ATCC 29513, 24 h, read-out: IZ
Staphylococcus aureus [23] = assay: Antimicrobial activity against Staphylococcus aureus ATCC 29513 at 1000 ug/ml after 24 hrs by cup plate method; settings: ATCC 29513, 24 h, read-out: IZ
Escherichia coli [24] = assay: Antimicrobial activity against Escherichia coli MTCC 723 at 500 ug/ml after 24 hrs by cup plate method; settings: MTCC 723, 24 h, read-out: IZ
Escherichia coli [25] = assay: Antimicrobial activity against Escherichia coli MTCC 723 at 750 ug/ml after 24 hrs by cup plate method; settings: MTCC 723, 24 h, read-out: IZ
Escherichia coli [26] = assay: Antimicrobial activity against Escherichia coli MTCC 723 at 1000 ug/ml after 24 hrs by cup plate method; settings: MTCC 723, 24 h, read-out: IZ
[27] = tested on: Radical scavenging activity; assay: Antioxidant activity assessed as DPPH radical scavenging activity at 100 ug/ml

Row | Structure (SMILES) | Activity [1] | zone of inhibition at 500 µg/mL (Aspergillus flavus [3]) | zone of inhibition at 750 µg/mL (Aspergillus flavus [4]) | zone of inhibition at 1000 µg/mL (Aspergillus flavus [5]) | zone of inhibition at 500 µg/mL (Aspergillus terreus [6]) | zone of inhibition at 750 µg/mL (Aspergillus terreus [7]) | zone of inhibition at 1000 µg/mL (Aspergillus terreus [8]) | zone of inhibition at 500 µg/mL (Aspergillus oryzae [9]) | zone of inhibition at 750 µg/mL (Aspergillus oryzae [10]) | zone of inhibition at 1000 µg/mL (Aspergillus oryzae [11]) | zone of inhibition at 500 µg/mL (Aspergillus niger [12]) | zone of inhibition at 750 µg/mL (Aspergillus niger [13]) | zone of inhibition at 1000 µg/mL (Aspergillus niger [14]) | zone of inhibition at 500 µg/mL (Pseudomonas aeruginosa [15]) | zone of inhibition at 750 µg/mL (Pseudomonas aeruginosa [16]) | zone of inhibition at 1000 µg/mL (Pseudomonas aeruginosa [17]) | zone of inhibition at 500 µg/mL (Klebsiella pneumoniae [18]) | zone of inhibition at 750 µg/mL (Klebsiella pneumoniae [19]) | zone of inhibition at 1000 µg/mL (Klebsiella pneumoniae [20]) | zone of inhibition at 500 µg/mL (Staphylococcus aureus [21]) | other results
1 | Cc1ccc2[nH]c(-c3ccccc3)c(C3C=C(c4ccccc4)Oc4nc[nH]c(=O)c43)c2c1 (stereo not given) | Active | 8 mm | 8 mm | 8 mm | 4 mm | 3 mm | 3 mm | 9 mm | 9 mm | 9 mm | 5 mm | 4 mm | 4 mm | 5 mm | 5 mm | 5 mm | 5 mm | 5 mm | 5 mm | 11 mm | Activity [2]: Active; zone of inhibition at 750 µg/mL (Staphylococcus aureus [22]): 10 mm; zone of inhibition at 1000 µg/mL (Staphylococcus aureus [23]): 10 mm; zone of inhibition at 500 µg/mL (Escherichia coli [24]): 8 mm; zone of inhibition at 750 µg/mL (Escherichia coli [25]): 6 mm; zone of inhibition at 1000 µg/mL (Escherichia coli [26]): 6 mm
2 | Cc1ccc(C2=CC(c3c(-c4ccccc4)[nH]c4ccccc34)C(C#N)=C(N)O2)cc1 (stereo not given) | Active | 8 mm | 9 mm | 10 mm | 8 mm | 6 mm | 5 mm | 5 mm | 9 mm | 8 mm | 8 mm | 8 mm | 8 mm | 9 mm | 8 mm | 6 mm | 8 mm | 6 mm | 5 mm | 0 mm | Activity [2]: Active; zone of inhibition at 750 µg/mL (Staphylococcus aureus [22]): 0 mm; zone of inhibition at 1000 µg/mL (Staphylococcus aureus [23]): 0 mm; zone of inhibition at 500 µg/mL (Escherichia coli [24]): 10 mm; zone of inhibition at 750 µg/mL (Escherichia coli [25]): 10 mm; zone of inhibition at 1000 µg/mL (Escherichia coli [26]): 10 mm
3 | Nc1n[nH]c2c1C(c1c(-c3ccccc3)[nH]c3ccc(Cl)cc13)C=C(c1ccc(Cl)cc1)O2 (stereo not given) | Active | 9 mm | 9 mm | 5 mm | 9 mm | 9 mm | 8 mm | 10 mm | 10 mm | 10 mm | 10 mm | 10 mm | 11 mm | 10 mm | 9 mm | 9 mm | 13 mm | 13 mm | 13 mm | 14 mm | Activity [2]: Active; zone of inhibition at 750 µg/mL (Staphylococcus aureus [22]): 14 mm; zone of inhibition at 1000 µg/mL (Staphylococcus aureus [23]): 14 mm; zone of inhibition at 500 µg/mL (Escherichia coli [24]): 13 mm; zone of inhibition at 750 µg/mL (Escherichia coli [25]): 13 mm; zone of inhibition at 1000 µg/mL (Escherichia coli [26]): 14 mm
4 | Cc1ccc(C2=CC(c3c(-c4ccccc4)[nH]c4ccccc34)c3c(N)nc(=O)[nH]c3O2)cc1 (stereo not given) | Active | 3 mm | 3 mm | 3 mm | 3 mm | 3 mm | 3 mm | 10 mm | 10 mm | 10 mm | 5 mm | 3 mm | 2 mm | 5 mm | 3 mm | 3 mm | 6 mm | 4 mm | 3 mm | 5 mm | Activity [27]: Active; zone of inhibition at 750 µg/mL (Staphylococcus aureus [22]): 3 mm; zone of inhibition at 1000 µg/mL (Staphylococcus aureus [23]): 5 mm; zone of inhibition at 500 µg/mL (Escherichia coli [24]): 7 mm; zone of inhibition at 750 µg/mL (Escherichia coli [25]): 7 mm; zone of inhibition at 1000 µg/mL (Escherichia coli [26]): 8 mm
5 | Cc1ccc(C2=CC(c3c(-c4ccccc4)[nH]c4ccc(Cl)cc34)c3c(N)n[nH]c3O2)cc1 (stereo not given) | Active | 3 mm | 3 mm | 3 mm | 5 mm | 4 mm | 4 mm | 8 mm | 5 mm | 5 mm | 9 mm | 8 mm | 0 mm | 12 mm | 12 mm | 13 mm | 12 mm | 12 mm | 12 mm | 14 mm | Activity [2]: Active; zone of inhibition at 750 µg/mL (Staphylococcus aureus [22]): 14 mm; zone of inhibition at 1000 µg/mL (Staphylococcus aureus [23]): 14 mm; zone of inhibition at 500 µg/mL (Escherichia coli [24]): 4 mm; zone of inhibition at 750 µg/mL (Escherichia coli [25]): 2 mm; zone of inhibition at 1000 µg/mL (Escherichia coli [26]): 2 mm
